This is an account of results in patent publication US6719969B1, “Treatment of liver disease and injury with CXC chemokines” (The Regents of The University of Michigan, priority 1999, dated 2004).

In data set [1] the test system is CD1 mice challenged with 400 mg/kg acetaminophen. The data set is described as follows: Acetaminophen-induced hepatic injury, mice fasted 12 h, treatment immediately or 10 h after challenge. The following applies: for Liver injury (histology): treatment 10 h after acetaminophen, liver at 48 h; for Significant reduction of serum AST levels / Reduction of serum AST levels: AST at 48 h; for Reduction of serum AST levels: NAC 100 ug, proteins 2 ug i.v. It is filed as in vivo, mouse. On the procedure: Female CD1 mice (6-8 wk of age) were purchased from Charles River Laboratories (Portage, Mich.) and maintained under specific pathogen-free conditions with free access to water and food prior to each study. Fresh suspensions of acetaminophen (Sigma Chemical Company, St. Louis, Mo.) were made daily by dissolving the compound in phosphate buffered saline (PBS) warmed to 40° C. In all studies, mice were allowed free access to water alone prior to an i.p. injection of 400 mg/kg acetaminophen (Manatou et al., 1996; incorporated herein by reference).
Protocol 2: In the second set of studies, mice were fasted for 12 h and received one of NAC, murine MIP-2, the human proteins ENA-78, IL-8, HGF or IP-10 either immediately or 10 h after acetaminophen challenge. […] Mice were injected i.v. with 100 μg of NAC or 2 μg of recombinant protein (ENA-78, IL-8, HGF or IP-10) dissolved in 0.5 ml of normal saline. All mice were subsequently sacrificed 48 h after acetaminophen challenge and serum and liver samples were removed.
Acute hepatocellular injury results in elevated levels of aspartate aminotransferase (AST). Serum levels of AST were determined 48 h after mice were challenged with acetaminophen by Clinical Pathology at the University of Michigan Medical School (Ann Arbor, Mich.) using standardized techniques.
For histological assessment of hepatic injury, liver tissues were fixed in 4% paraformaldehyde for 24 h prior to routine histological processing. A pathologist assessed hematoxylin and eosin stained slides from acetaminophen-challenged mice in a blinded manner. Separate scoring systems were devised to indicate the area of liver necrosis and hemorrhage, and the extent of hepatic inflammation. Detailed histological grading of hepatic injury including area of liver necrosis and hemorrhage was determined at 48 h after acetaminophen challenge. Hepatic inflammation was graded as absent, slight, moderate, or prominent.
The histological appearances of the livers from normal mice and mice that were challenged with acetaminophen and received saline or 2 μg of murine MIP-2, human ENA-78, human IL-8, human IP-10, human HGF or 100 μg of NAC were also analyzed. Mice were fasted for 12 h prior to i.p. injection with 400 mg/kg of acetaminophen, and then allowed free access to food. In these studies, saline, chemokines or NAC were given by i.v. injection 10 h after acetaminophen challenge, and liver was removed from each mouse for histological examination at the 48 h time point after acetaminophen.

Data set [2] deals with normal murine liver cells (ATCC CRL-1638; NmuLi). The data set is described as follows: Cultured liver cell proliferation after acetaminophen, [3H]thymidine incorporation. The class given is cell-based, mouse. To be noted: for Proliferation of liver cells exposed to PBS: NAC 1 mM, cytokines 1 ng/ml, no acetaminophen; for Proliferation of liver cells exposed to acetaminophen for 24 h: 2.5 mg/ml acetaminophen. As to the method:
The effects of chemokines, NAC and HGF on hepatocyte proliferation after a 24 h acetaminophen challenge were examined using normal murine liver cells obtained from American Type Culture Collection (ATCC CRL-1638; NmuLi). Hepatocytes were plated at a density of 1.0×10^5 cells/well in 6-well tissue culture plates, and were deprived of fetal bovine serum supplementation for 36 h prior to an study. Fasted hepatocytes were subsequently exposed to 2.5 mg/ml of acetaminophen and were left untreated or treated with one of NAC, MIP-2, ENA-78, IL-8, IP-10 or HGF. NAC at 1 mM or individual cytokines at 1 ng/ml were added either immediately or 10 h after the addition of acetaminophen.
In additional in vitro studies, normal serum or anti-CXCR2 antibody was also included in cultures of treated or untreated hepatocytes exposed to PBS or acetaminophen. Ten μCi of [^3H]thymidine was added to each well for the final 4 h of culture, and 24 h after the addition of acetaminophen suspensions of hepatocytes were prepared via cell lysis with 0.5% (v/v) Triton-X100. [^3H]thymidine incorporation was assessed by liquid scintillation counting on a Beckman counter (Beckman Instruments, Fullerton, Calif.).
In general terms: Dividing cells build labelled thymidine or BrdU into new DNA.

Data set [3] deals with CD-1 mice challenged with 400 mg/kg acetaminophen.
Data set [4] relates to primary rat hepatocytes.
Experimental: (§1) Adult male pathogen-free Sprague Dawley rats (Charles River, Portage, Mich.) weighing 300-350 gms. were used for isolation of hepatocytes by collagenase perfusion (Berry and Friend, 1969; Alpini et al., 1994; each incorporated herein by reference). Perfusion was performed via the portal vein after anesthesia was induced with intramuscular ketamine (100 mg/kg) and maintained with inhalation of methoxyflurane. […] The portal vein was then exposed and cannulated with a 16 gauge angiocatheter.
(§2) The liver was perfused with Hank's solution (calcium and magnesium free with 10 mM Hepes and 10^5 U/L of penicillin/streptomycin, pH 7.4 [Biowhittaker, Walkersville, Md.]) at 37° C. at a rate of 10 ml/min to flush the liver of intravascular blood. The liver was next perfused with a collagenase solution (0.5 mg/ml collagenase B [Boehringer Mannheim, Indianapolis, Ind.] in Dulbecco's Modified Eagle's Media/F12 [DMEM/F12 {Biowhittaker, Walkersville, Md.}] with 10^5 U/L penicillin/streptomycin) at 37° C. at a rate of 10 ml/min until there was evidence of tissue fracture beneath the liver capsule.
(§3) The liver was then gently removed from the animal, placed into a sterile petri dish containing additional collagenase solution, the liver capsule removed, and the tissue gently agitated to disperse the cells. […] Hepatocyte viability was generally 85-95% as determined by trypan blue exclusion. […]
In data set [5] the test system is CD1 mice challenged with 400 mg/kg acetaminophen. The data set is described as follows: Acetaminophen challenge in mice fasted 24 h, MIP-2 or NAC treatment. It is filed as in vivo, mouse.
Experimental: Protocol 3: In the next set of studies, mice were fasted for 24 h and received MIP-2 (2 μg) or NAC (100 μg) via an i.v. injection either immediately or 10 h after acetaminophen challenge, and liver and serum samples were removed from surviving mice 48 h after acetaminophen challenge. Liver and serum samples from the experimental groups and from mice challenged with an i.p. injection of PBS and treated i.v. with normal saline were processed as described below.
The histological appearances of the livers from mice that were challenged with acetaminophen and received 100 μg of NAC or 2 μg of murine MIP-2 by i.v. injection, either immediately after or 10 h later, were also analyzed.
Data set [6] has as its system CD-1 mice challenged with 400 mg/kg acetaminophen. Briefly: Delayed MIP-2 therapy in acetaminophen-challenged mice: histology, BrdU, nuclear Western blot. It is filed as in vivo, mouse. A general note: Immunoblotting shows a protein as a band on a membrane.
The target of the next data set is T1, murine CXCR2 (Mus musculus, UniProt P35343).
T1 sequence (P35343 1-359): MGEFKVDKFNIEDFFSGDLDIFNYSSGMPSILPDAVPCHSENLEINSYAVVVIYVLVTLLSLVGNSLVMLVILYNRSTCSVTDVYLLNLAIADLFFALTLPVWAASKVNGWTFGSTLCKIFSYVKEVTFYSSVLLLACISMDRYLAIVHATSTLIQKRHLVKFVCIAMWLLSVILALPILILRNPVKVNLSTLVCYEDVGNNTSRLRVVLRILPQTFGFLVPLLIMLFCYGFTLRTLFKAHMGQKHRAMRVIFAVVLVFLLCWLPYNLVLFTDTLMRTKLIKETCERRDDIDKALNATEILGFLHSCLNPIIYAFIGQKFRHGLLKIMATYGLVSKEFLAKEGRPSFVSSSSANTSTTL
The following applies: Lee et al., 1995; cited from earlier work.

Data set [7] concerns primary rat hepatocytes. The data set is described as follows: Primary rat hepatocyte proliferation in vitro, 3H-thymidine incorporation. The following applies: 0.001-100 ng/ml, 24 h of incubation, vs media alone.
Experimental: as §1, §2, §3
Another data set concerns neutrophils. To be noted: ELR motif introduced into PF-4; cited from earlier work.
Where [8] appears, read: treatment delayed 10 h after acetaminophen.
[9] abbreviates: treatment immediately after acetaminophen.
[10] abbreviates: 24 h fast, treatment delayed 10 h.
Where [11] appears, read: CD1 mice fasted 24 h, 400 mg/kg acetaminophen, 400 mg/kg.

Several values for one entry are separate records, joined by “and”; a condition that tells them apart may be missing. Identical values can stand only once. Like-named read-outs stand apart in the source and are kept apart here.

Regarding “IL-8: ELR-containing CXC chemokine, interleukin-8; human recombinant protein”, the “Liver injury (histology)” value in data set [1] is “marked attenuation of liver injury”. Besides, the “Significant reduction of serum AST levels” value (“Significant reduction” below) in data set [1] (setting [8]) is reported as “significantly reduced serum AST levels”. Further, in data set [1] (setting [9]), the “Reduction of serum AST levels” value is listed as “approximately 50%”. Also, in [2], the “Proliferation of liver cells exposed to PBS” value is “did not change the proliferation”.

For “ENA-78: ELR-containing CXC chemokine, epithelial neutrophil activating protein-78; human recombinant protein”, the “Liver injury (histology)” value in data set [1] is listed as “marked attenuation of liver injury”. Besides, the “Significant reduction” value in [1] (setting [8]) is on record as “significantly reduced serum AST levels”. Besides, in data set [1] (setting [9]), the “Reduction of serum AST levels” value is “approximately 50%”. Moreover, in data set [2] (treatment added immediately), the “Proliferation of liver cells exposed to acetaminophen for 24 h” value (from here on “Proliferation … for 24 h”) is reported as “prevented the drop in liver cell proliferation”. The “Proliferation of liver cells exposed to PBS” value in data set [2] is reported as “did not change the proliferation”.

Consider “IP-10: non-ELR CXC chemokine, γ-interferon-inducible protein-10”, for which, in data set [1] (setting [9]), the “Significant reduction” value is listed as “not”. In addition, in [2] (1 ng/ml, vs control cultures with PBS), the “Lowering of proliferation rate of liver cells exposed to PBS” value was determined as 40%. Also, the “Proliferation … for 24 h” value in data set [2] (treatment added immediately) is listed as “not further reduced”. Further, in data set [3] (1 ug i.v. 10 h after acetaminophen, 2 days after challenge), the “Hepatic injury (histology)” value is listed as “dramatically decreased hepatic injury”. Further, the “Decrease in liver injury (serum ALT)” value in data set [3] (8 hours after administration, vs saline) is “approximately three-fold”. In addition, in data set [3] (8 h post treatment), the “Serum MIP-2 levels” value is “almost three times the levels seen in control animals”. Further, in data set [3] (26 h and subsequent time points), the “CXCR2 protein in liver (Western blot)” value was “high level of CXCR2 protein”. Moreover, the “CXCR2 protein on hepatocytes (immunohistochemistry)” value in data set [3] (mouse, in vivo) is on record as “quite strong expression of CXCR2 protein”.

As for “HGF: human hepatocyte growth factor, used as positive control [reference compound]”, the “Liver injury (histology)” value in data set [1] is listed as “Neither HGF nor 100 μg of NAC were effective”. Also, in data set [1] (setting [9]), the “Significant reduction” value is “not”. Moreover, the “Proliferation of liver cells exposed to PBS” value in data set [2] was “did not change the proliferation”. For the same molecule, the “Hepatocyte proliferation (incorporation of 3H-thymidine)” value in the data set on primary rat hepatocytes [4] is “more significant”.

On to `CC(=O)N[C@@H](CS)C(=O)O` [NAC, N-acetyl-cysteine], for which the “Liver injury (histology)” value in data set [1] is “Neither HGF nor 100 μg of NAC were effective”. Also, the “Significant reduction” value in data set [1] (setting [8]) is recorded as “no longer able to significantly reduced serum AST levels”. In addition, the “Reduction of serum AST levels” value in data set [1] (setting [9]) was “approximately 90%”. Also, the Liver histology result was “did not attenuate hepatic injury” in data set [5] (setting [10]) and “effective” in [5] (24 h fast, treatment immediately after acetaminophen). Besides, the “Serum AST, NAC vs MIP-2” value in data set [5] (24 h fast, treatment immediately after acetaminophen, 48 h) is listed as “significantly lower levels of serum AST”. Further, in data set [5] (CD1 mice fasted 24 h, 400 mg/kg acetaminophen, monitored 48 h, 400 mg/kg), the “Percent survival, treatment Immediately After Acetaminophen” value stood at 90%. For the same molecule, the “Percent survival, treatment 10 h post Acetaminophen” value in data set [5] (setting [11]) was 25% and 20%. The “Proliferation … for 24 h” value in data set [2] (treatment added 10 h later, vs PBS cultures) is on record as “significantly reduced liver cell proliferation”; in data set [2] (treatment added immediately), “maintained the proliferation”. Also, the “Proliferation of liver cells exposed to PBS” value in data set [2] is “did not alter the proliferation”.

B1: MIP-2: ELR-containing CXC chemokine, macrophage inflammatory protein-2; recombinant murine protein (protein, UniProt P10889 28-100, looked up)
C-X-C motif chemokine 2: AVVASELRCQCLKTLPRVDFKNIQSLSVTPPGPHCAQTEVIATLKGGQKVCLDPEAPLVQKIIQKILNKGKAN
Turning to B1, the “Liver injury (histology)” value in data set [1] was “marked attenuation of liver injury”. Further, the “Significant reduction” value in data set [1] (setting [8]) was “significantly reduced serum AST levels”. Moreover, in data set [1] (setting [9]), the “Reduction of serum AST levels” value is reported as “approximately 50%”. Besides, in data set [5] (setting [10]), the Liver histology entry is listed as “showed improvements”. For the same molecule, the “Serum AST, MIP-2 vs NAC” value in data set [5] (24 h fast, treatment delayed 10 h, 48 h) is reported as “significantly lower levels of serum AST”. Also, in data set [5] (setting [11]), the “Percent survival, treatment 10 h post Acetaminophen” value is 60%. Further, the “Proliferation … for 24 h” value in data set [2] (treatment added immediately) is “prevented the drop in liver cell proliferation”. In addition, in [2], the “Proliferation of liver cells exposed to PBS” value was “did not change the proliferation”. Moreover, the “Liver histology 2 days after injection” value in [6] (1 ug i.v. 10 h after acetaminophen) is “little evidence of liver injury”. In data set [6] (8 h after treatment), the “Nuclear expression of C/EBP-α” value is “exhibited nuclear expression of the 48- and 42-kDa isoforms of C/EBP-α”. Besides, the “Nuclear cyclin D1 protein” value in [6] (24 h after treatment, Western blot) was “markedly greater nuclear levels of cyclin D1 protein”. Moreover, in data set [6] (48 h after treatment), the “BrdU-labeled hepatocytes, enhancement above control group” value was 10 fold. The “AST and ALT levels” value in data set [6] (IL-6 knockout) was “dramatic decrease of AST and ALT levels”. Besides, the “Nuclear expression of 38- and 35-kDa LAP of C/EBP-β” value in data set [6] (Western blot of liver nuclear extracts) was “evident at 4 h after MIP-2 treatment”. Further, in [6] (vs PBS), the “Nuclear expression of STAT-3” value is “strongly expressed at all times examined”. The “IL-6 in serum or liver” value in [6] (vs controls) is given as “never significantly elevated”. In the data set with murine CXCR2, the “Affinity for murine CXCR2 relative to KC” value is listed as “ten-fold greater affinity”. The “Hepatocyte proliferation (incorporation of 3H-thymidine)” value with primary rat hepatocytes [7] was “significant increase in hepatocyte proliferation”.

B2: PF-4: CXC chemokine lacking the ELR sequence (protein, UniProt P02776 32-101, looked up)
Platelet factor 4: EAEEDGDLQCLCVKTTSQVRPRHITSLEVIKAGPHCPTAQLIATLKNGRKICLDLQAPLYKKIIKKLLES
As to B2, in the data set with neutrophils, the “Increase in neutrophil chemotactic properties” value was 1,000 fold.

B3: KC: murine ELR-CXC chemokine with neutrophil chemotactic properties (protein, UniProt P12850 25-96, looked up)
Growth-regulated alpha protein: APIANELRCQCLQTMAGIHLKNIQSLKVLPSGPHCTQTEVIATLKNGREACLDPEAPLVQKIVQKMLKGVPK
With B3, the “Affinity for CXCR2, fold less than MIP-2” value with murine CXCR2 is reported as “approximately 10 fold”.
